The values below come from patent publication US20090118332A1, “Therapeutic Agents - 551” (AstraZeneca AB, priority 2006, published 2009).

The target in this test is T1, human Fatty Acid Synthase (Homo sapiens, UniProt P49327).
T1 construct: made in house
The test can be described thus: Human FAS enzyme assay (decrease in NADPH fluorescence). It counts as biochemical. The settings on record: % inhibition at a concentration of 100 μmolar. The essentials:
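In-house human FAS was preincubated with compound and NADPH for 15 min at room temperature in 0.1 M Tris pH 7.5 with EDTA, glutathione and BSA. Malonyl CoA and acetyl CoA (500 μM and 150 μM in the added mix) were then added for 60 min. IC50 came from time-zero-subtracted NADPH fluorescence (340/460 nm).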

T1 sequence (P49327 whole entry): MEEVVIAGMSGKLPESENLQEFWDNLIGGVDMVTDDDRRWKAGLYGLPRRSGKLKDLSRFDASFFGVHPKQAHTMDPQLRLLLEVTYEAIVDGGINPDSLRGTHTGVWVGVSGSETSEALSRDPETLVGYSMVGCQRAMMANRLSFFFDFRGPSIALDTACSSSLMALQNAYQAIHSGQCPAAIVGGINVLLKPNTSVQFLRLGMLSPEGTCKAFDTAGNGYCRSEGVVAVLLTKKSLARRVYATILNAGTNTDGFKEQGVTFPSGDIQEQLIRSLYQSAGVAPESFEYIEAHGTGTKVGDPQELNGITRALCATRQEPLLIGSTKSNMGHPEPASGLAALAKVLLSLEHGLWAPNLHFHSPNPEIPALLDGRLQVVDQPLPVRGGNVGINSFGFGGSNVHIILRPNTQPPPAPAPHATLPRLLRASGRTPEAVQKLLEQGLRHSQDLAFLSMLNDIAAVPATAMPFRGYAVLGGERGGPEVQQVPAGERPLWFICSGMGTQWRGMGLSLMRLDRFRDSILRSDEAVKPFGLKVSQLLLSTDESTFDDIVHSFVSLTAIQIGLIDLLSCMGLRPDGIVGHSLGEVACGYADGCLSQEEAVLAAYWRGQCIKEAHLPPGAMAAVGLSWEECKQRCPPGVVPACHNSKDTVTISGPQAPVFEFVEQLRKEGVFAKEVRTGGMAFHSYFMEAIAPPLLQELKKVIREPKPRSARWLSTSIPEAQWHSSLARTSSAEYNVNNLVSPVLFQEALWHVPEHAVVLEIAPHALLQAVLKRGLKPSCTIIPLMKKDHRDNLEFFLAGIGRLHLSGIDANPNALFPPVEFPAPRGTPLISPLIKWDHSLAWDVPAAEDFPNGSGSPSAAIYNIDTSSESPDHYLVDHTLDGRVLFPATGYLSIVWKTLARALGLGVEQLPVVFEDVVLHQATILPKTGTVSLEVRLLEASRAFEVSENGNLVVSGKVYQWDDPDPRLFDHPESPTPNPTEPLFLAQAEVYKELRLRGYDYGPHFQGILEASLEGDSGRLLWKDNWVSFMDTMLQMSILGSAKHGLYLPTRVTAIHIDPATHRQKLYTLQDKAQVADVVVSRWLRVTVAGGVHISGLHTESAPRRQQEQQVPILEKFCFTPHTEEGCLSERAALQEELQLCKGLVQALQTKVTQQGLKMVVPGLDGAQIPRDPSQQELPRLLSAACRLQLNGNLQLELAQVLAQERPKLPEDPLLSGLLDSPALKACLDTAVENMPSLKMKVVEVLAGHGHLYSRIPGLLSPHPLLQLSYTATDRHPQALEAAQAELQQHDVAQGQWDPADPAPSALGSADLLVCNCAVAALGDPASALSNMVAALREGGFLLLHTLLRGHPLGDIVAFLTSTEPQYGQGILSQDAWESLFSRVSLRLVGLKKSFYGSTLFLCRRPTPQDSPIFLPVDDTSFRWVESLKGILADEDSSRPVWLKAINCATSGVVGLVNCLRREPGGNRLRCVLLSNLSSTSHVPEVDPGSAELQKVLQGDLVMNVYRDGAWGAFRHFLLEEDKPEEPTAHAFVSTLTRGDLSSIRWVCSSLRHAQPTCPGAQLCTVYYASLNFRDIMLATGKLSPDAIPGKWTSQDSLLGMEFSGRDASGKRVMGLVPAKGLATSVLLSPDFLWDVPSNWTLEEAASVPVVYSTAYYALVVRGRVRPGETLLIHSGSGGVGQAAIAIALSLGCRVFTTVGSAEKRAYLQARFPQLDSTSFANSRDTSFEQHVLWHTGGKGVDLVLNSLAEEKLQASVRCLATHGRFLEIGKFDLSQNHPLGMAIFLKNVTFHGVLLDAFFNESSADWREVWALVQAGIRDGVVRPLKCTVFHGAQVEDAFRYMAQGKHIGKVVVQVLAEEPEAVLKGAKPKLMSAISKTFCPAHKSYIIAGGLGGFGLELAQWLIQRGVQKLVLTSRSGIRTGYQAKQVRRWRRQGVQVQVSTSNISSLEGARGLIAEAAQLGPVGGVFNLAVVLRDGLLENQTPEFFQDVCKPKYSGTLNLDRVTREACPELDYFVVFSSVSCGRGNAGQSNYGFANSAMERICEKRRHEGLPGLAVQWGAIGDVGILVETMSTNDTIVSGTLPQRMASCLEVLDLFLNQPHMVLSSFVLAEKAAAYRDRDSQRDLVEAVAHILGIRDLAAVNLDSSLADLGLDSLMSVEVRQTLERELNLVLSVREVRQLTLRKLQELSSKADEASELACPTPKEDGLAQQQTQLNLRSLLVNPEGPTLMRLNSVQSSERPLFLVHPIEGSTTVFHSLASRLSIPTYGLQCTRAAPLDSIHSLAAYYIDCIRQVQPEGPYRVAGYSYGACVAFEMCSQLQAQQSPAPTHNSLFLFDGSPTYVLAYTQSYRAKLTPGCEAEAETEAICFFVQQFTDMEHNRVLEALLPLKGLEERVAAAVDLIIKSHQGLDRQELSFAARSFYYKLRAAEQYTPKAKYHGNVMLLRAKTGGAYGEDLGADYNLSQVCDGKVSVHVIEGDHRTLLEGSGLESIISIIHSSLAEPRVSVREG

Turning to `Cc1ccc(C(=O)N2CCC(c3ccc(C#N)cc3)CC2)cc1NC(=O)NC1CCN(C(=O)C(C)C)CC1` [Example 283, 1-[5-[4-(4-cyanophenyl)piperidine-1-carbonyl]-2-methyl-phenyl]-3-[1-(2-methylpropanoyl)-4-piperidyl]urea], the inhibition at 100 µM worked out at 101%.
Turning to `Cc1ccc(C(=O)N2CCC(c3ccc(C#N)cc3)CC2)cc1NC(=O)NC1CCN(C(=O)N(C)C)CC1` [Example 284, 4-[[5-[4-(4-cyanophenyl)piperidine-1-carbonyl]-2-methyl-phenyl]carbamoylamino]-N,N-dimethyl-piperidine-1-carboxamide], the inhibition at 100 µM amounted to 106%.
With `Cc1ccc(C(=O)N2CCC(c3ccc(C#N)cc3)CC2)cc1NC(=O)NC1CCN(S(=O)(=O)N(C)C)CC1` [Example 285, 1-[5-[4-(4-cyanophenyl)piperidine-1-carbonyl]-2-methyl-phenyl]-3-[1-(dimethylsulfamoyl)-4-piperidyl]urea], the inhibition at 100 µM came to 98.7%.
In the case of `Cc1ccc(C(=O)N2CCC(c3ccc(C#N)cc3)CC2)cc1NC(=O)NC1CCCNC1` (stereo not shown) [Example 286, 1-[5-[4-(4-cyanophenyl)piperidine-1-carbonyl]-2-methyl-phenyl]-3-(3-piperidyl)urea] it was 99.6%; in that of `Cc1ccc(C(=O)N2CCC(c3ccc(C#N)cc3)CC2)cc1NC(=O)NC1CCC1` [Example 287, 1-[5-[4-(4-cyanophenyl)piperidine-1-carbonyl]-2-methyl-phenyl]-3-cyclobutyl-urea], 92.4%; in that of `Cc1ccc(C(=O)N2CCC(c3ccc(C#N)cc3)CC2)cc1NC(=O)NCC1CC1` [Example 288, 1-[5-[4-(4-cyanophenyl)piperidine-1-carbonyl]-2-methyl-phenyl]-3-(cyclopropylmethyl)urea], 99.8%.
Regarding `Cc1ccc(C(=O)N2CCC(c3ccc(C#N)cc3)CC2)cc1NC(=O)NCc1cc[nH]n1` [Example 289, 1-[5-[4-(4-cyanophenyl)piperidine-1-carbonyl]-2-methyl-phenyl]-3-(1H-pyrazol-3-ylmethyl)urea], the inhibition at 100 µM turned out to be 91.2%.
For the compound `Cc1ccc(C(=O)N2CCC(c3ccc(C#N)cc3)CC2)cc1NC(=O)NCc1ccn(C)n1` [Example 290, 1-[5-[4-(4-cyanophenyl)piperidine-1-carbonyl]-2-methyl-phenyl]-3-[(1-methylpyrazol-3-yl)methyl]urea], the inhibition at 100 µM amounted to 102%.
With `Cc1ccc(C(=O)N2CCC(c3ccc(C#N)cc3)CC2)cc1NC(=O)NCc1ncccn1` [Example 291, 1-[5-[4-(4-cyanophenyl)piperidine-1-carbonyl]-2-methyl-phenyl]-3-(pyrimidin-2-ylmethyl)urea] the figure was 89.6%.
For `Cc1cc(CNC(=O)Nc2cc(C(=O)N3CCC(c4ccc(C#N)cc4)CC3)ccc2C)[nH]n1` [Example 292, 1-[5-[4-(4-cyanophenyl)piperidine-1-carbonyl]-2-methyl-phenyl]-3-[(5-methyl-2H-pyrazol-3-yl)methyl]urea], the inhibition at 100 µM is 95.6%.
Take `Cc1ccc(C(=O)N2CCC(c3ccc(C#N)cc3)CC2)cc1NC(=O)NCc1cnccn1` [Example 293, 1-[5-[4-(4-cyanophenyl)piperidine-1-carbonyl]-2-methyl-phenyl]-3-(pyrazin-2-ylmethyl)urea]: the inhibition at 100 µM was 92.5%.
Regarding `Cc1cc(C)c(C(=O)N2CCC(c3ccc(C#N)cc3)CC2)cc1NC(=O)NCCCS(C)(=O)=O` [Example 294, 1-[5-[4-(4-cyanophenyl)piperidine-1-carbonyl]-2,4-dimethyl-phenyl]-3-(3-methylsulfonylpropyl)urea], the inhibition at 100 µM is 92.2%.
In the case of `CCC(=O)N1CCCC(NC(=O)Nc2cc(C(=O)N3CCC(c4ccc(C#N)cc4)CC3)ccc2C)C1` (stereo not shown) [Example 295, 3-[5-[4-(4-cyanophenyl)piperidine-1-carbonyl]-2-methyl-phenyl]-1-(1-propanoyl-3-piperidyl)urea] it was 97.2%.

By inhibition is commonly meant the relative decrease from the control value, in per cent.
